Paper PMC8508903, “Novel Dipyridinium Lipophile-Based Ionic Liquids Tethering Hydrazone Linkage: Design, Synthesis and Antitumorigenic Study” (International Journal of Molecular Sciences, 2021)
Where a name gives a salt, the structure may show the parent alone.

How the values were obtained:
[1] = test system: H661 lung cancer cells; assay: MTT cell viability assay, H661; type: cell-based, human; details: mean of three independent experiments (N = 9)
Procedure: (§1) To evaluate the effect of the examined series on the viability of different lung cancer cells, MTT assay was conducted after exposing A549, H1299, and H661 cell lines to increasing concentrations of each compound for 48 h. […] Table 2 and Supplementary Figure S92 (see Supplementary Materials) show the 50% inhibitory concentration (IC50) values for the compounds under investigation in A549, H1299, and H661 lung cancer cells.
(§2) The human lung cancer cell lines A549, H1299 and H661 and the normal cells dermal fibroblasts were obtained from the American Type Culture Collection ATCC. Cells were cultured as a monolayer at seeding density of 8 × 10^3 cells per well in high glucose Dulbecco’s modified eagle medium (DMEM) (Invitrogen, USA), as previously described. The in vitro assessment of the antitumorigenic activities related to the studied compounds was undertaken using the 3-(4,5-dimethylthiazol-2yl)-2,5-diphenyl tetrazolium bromide (MTT) colorimetric assay, as previously reported. The compounds under investigation were tested in three triplicates of each concentration in three independent assays for a total of nine replicates. Both positive (cisplatin) and negative (untreated culture) controls were applied under the same experimental conditions. Cells were cultured for 48 h at 37 °C in a 5% CO2 incubator. Afterwards, MTT assay was carried out where viable cell count was determined based on the amount of formazan crystals, as verified by the absorbance at 490 nm.
(§3) Data was analyzed by Graphpad Prism software (Graphpad Software Inc. Jolla, CA, USA) for the determination of IC50 value. All data were expressed as the average of triplicate experiments.

[2] = test system: human dermal fibroblasts; assay: MTT cell viability assay, normal dermal fibroblasts; type: cell-based; details: 48 h, noncancerous human dermal fibroblasts
Procedure: as §1, §2, §3

[3] = test system: H1299 lung cancer cells; assay: MTT cell viability assay, H1299; type: cell-based, human; details: mean of three independent experiments (N = 9)
Procedure: as §1, §2, §3

[4] = test system: A549 lung cancer cells; assay: MTT cell viability assay, A549; type: cell-based, human; details: mean of three independent experiments (N = 9)
Procedure: as §1, §2, §3

SMILES	IC50 ([1]; Homo sapiens, NCI-H661, 48 h)	IC50 ([3]; Homo sapiens, NCI-H1299, 48 h)	IC50 ([4]; Homo sapiens, A549, 48 h)	IC50 ([1]; 48 h)	IC50 ([3]; 48 h)	IC50 ([4]; 48 h)	IC50 ([2]; Homo sapiens, Fibroblast)	IC50 [2]
CCCCCCCCCCCCCC[n+]1ccc(C(=O)NN=Cc2ccc[n+](CCCCCCCCCCCCCC)c2)cc1 [Compound 29, 1-Tetradecyl-3-((2-(1-tetradecylpyridin-1-ium-4-carbonyl)hydrazono)methyl)pyridin-1-ium Tetrafluoroborate]	46.8 µM	44.6 µM	42.1 µM				> 300 µM	
N.N.[Cl][Pt][Cl] [Cisplatin, cisplatin, reference compound]				32 µM	18 µM	23 µM		> 100 µM
CCCCCCCCCCCCCC[n+]1ccc(C(=O)NN=Cc2ccc[n+](CCCCCCCCCCCCCC)c2)cc1 [Compound 13, 1-Tetradecyl-3-((2-(1-tetradecylpyridin-1-ium-4-carbonyl)hydrazono)methyl)pyridin-1-ium Iodide]				38.2 µM	38 µM	36.8 µM		> 300 µM
CCCCCCCCCCCCCCCC[n+]1ccc(C(=O)NN=Cc2ccc[n+](CCCCCCCCCCCCCCCC)c2)cc1 [Compound 14, 1-Hexadecyl-3-((2-(1-hexadecylpyridin-1-ium-4-carbonyl)hydrazono)methyl)pyridin-1-ium Iodide]				11.2 µM	10.1 µM	7.11 µM		> 300 µM
CCCCCCCCCCCCCC[n+]1ccc(C(=O)NN=Cc2ccc[n+](CCCCCCCCCCCCCC)c2)cc1 [Compound 30, 1-Tetradecyl-3-((2-(1-tetradecylpyridin-1-ium-4-carbonyl)hydrazono)methyl)pyridin-1-ium Trifluoroacetate]				41.9 µM	38.5 µM	38.6 µM		> 300 µM
CCCCCCCCCCCCCCCC[n+]1ccc(C(=O)NN=Cc2ccc[n+](CCCCCCCCCCCCCCCC)c2)cc1 [Compound 33, 1-Hexadecyl-3-((2-(1-hexadecylpyridin-1-ium-4-carbonyl)hydrazono)methyl)pyridin-1-ium Trifluoroacetate]				100 µM	92.3 µM	87.8 µM		> 300 µM
CCCCCCCCCCCCCCCC[n+]1ccc(C(=O)NN=Cc2ccc[n+](CCCCCCCCCCCCCCCC)c2)cc1 [Compound 32, 1-Hexadecyl-3-((2-(1-hexadecylpyridin-1-ium-4-carbonyl)hydrazono)methyl)pyridin-1-ium Tetrafluoroborate]				104 µM	108 µM	114 µM	> 300 µM	

Continued, in another order:

IC50 ([1]; Homo sapiens, NCI-H661, 48 h)	IC50 ([3]; Homo sapiens, NCI-H1299, 48 h)	IC50 ([4]; Homo sapiens, A549, 48 h)	IC50 ([1]; 48 h)	IC50 ([3]; 48 h)	IC50 ([4]; 48 h)	SMILES	IC50 ([2]; Homo sapiens, Fibroblast)	IC50 [2]
		31.4 µM	33 µM	32.6 µM		CCCCCCCCC[n+]1ccc(C(=O)NN=Cc2ccc[n+](CCCCCCCCC)c2)cc1 [Compound 20, 1-Nonyl-3-((2-(1-nonylpyridin-1-ium-4-carbonyl)hydrazono)methyl)pyridin-1-ium Tetrafluoroborate]	> 300 µM	
			74.5 µM	71 µM	78.5 µM	CCCCCCCC[n+]1ccc(C(=O)NN=Cc2ccc[n+](CCCCCCCC)c2)cc1 [Compound 18, 1-Octyl-3-((2-(1-octylpyridin-1-ium-4-carbonyl)hydrazono)methyl)pyridin-1-ium Trifluoroacetate]		> 300 µM
		14.3 µM	10.5 µM	12.1 µM		CCCCCCCCCCCC[n+]1ccc(C(=O)NN=Cc2ccc[n+](CCCCCCCCCCCC)c2)cc1 [Compound 27, 1-Dodecyl-3-((2-(1-dodecylpyridin-1-ium-4-carbonyl)hydrazono)methyl)pyridin-1-ium Trifluoroacetate]	> 300 µM	
			19.4 µM	28 µM	33.5 µM	CCCCCCCCC[n+]1ccc(C(=O)NN=Cc2ccc[n+](CCCCCCCCC)c2)cc1 [Compound 21, 1-Nonyl-3-((2-(1-nonylpyridin-1-ium-4-carbonyl)hydrazono)methyl)pyridin-1-ium Trifluoroacetate]		> 300 µM
